Tests used:
[1] = system: AtT-20 pituitary cells; assay: Inhibition of ACTH secretion in pituitary cells (ACTH EIA on supernatant); type: cell-based, mouse; details: 25 μM, 24-hour treatment
Procedure: ACTH release (percent comparison to DMSO control). Briefly, 12,500 AtT-20 cells per well were seeded in a 96-well plate. After 24 hours exposure, cells were treated with each compound at the indicated final concentration, or with DMSO alone (control condition compound solvent) or with corticotropin releasing factor (indicated CRF) at 100 nM. After a 24-hour treatment, cell supernatants were collected and stored at −80° C., prior to quantification of ACTH concentration using ACTH chemiluminescent EIA kit (Phoenix Pharmaceuticals, Inc.). Determination of ACTH concentrations was based on the best-fitting ACTH standard curve and P values were calculated using one-way ANOVA, using Prism 9 software (GraphPad Software, Inc.) ns (P=0.12). **P<0.002. ***P<0.001. All compounds were tested in technical triplicates. One representative experiment out of three is presented.
FIG. 4: illustrates a decrease of ACTH secretion by AtT-20 cells after 24-hour treatment of halogenated salicylanilides. 12,500 AtT-20 cells per well were seeded in a 96-well plate. […] After a 24-hour treatment, cell supernatants were collected and stored at −80° C., prior to quantification of ACTH concentration using ACTH chemiluminescent EIA kit (Phoenix Pharmaceuticals, Inc.). Determination of ACTH concentrations was based on the best-fitting ACTH standard curve and P values were calculated by ordinary one-way ANOVA using Prism 6 software (GraphPad Software, Inc), ns (not significant), **** P<0.0001. Compounds were tested in technical triplicates.
12,500 AtT-20 cells per well were seeded in a 96-well plate. After 24 hours, cells were treated with compounds (corresponding chemical formula are indicated in Table 1) at 25 μM final concentration, or with DMSO alone (compound solvent). After a 24-hour treatment, cell supernatants were collected and stored at −80° C., prior to quantification of ACTH concentration using ACTH chemiluminescent EIA kit (Phoenix Pharmaceuticals, Inc.). Determination of ACTH concentrations was based on the best-fitting ACTH standard curve and P values were calculated by ordinary one-way ANOVA using Prism 6 software (GraphPad Software, Inc), ns (not significant), *P<0.05, ***P<0,0001. Compounds were tested in technical triplicates.
Mouse AtT-20 pituitary cell line were used as a powerful and well-characterized model to monitor ACTH secretion using an enzyme immunoassay (EIA) kit.
Mouse AtT-20 cells were obtained from the American Type Culture Collection and maintained on DMEM containing 10% fetal bovine serum, 100 μg/mL streptomycin and 100 U/mL penicillin at 37° C. with 5% CO2 after recovery from long-term storage on liquid nitrogen-vapor phase.
The ACTH secretion levels of AtT-20 cell culture was monitored on the supernatant of AtT-20 cells treated or not by increasing doses of compounds belonging to the family of halogenated salicylanilides chemicals.
1.25×10^4 AtT20 cells were seeded on polylysine-coated 96-well culture vessels on 150 μL of complete medium. After 24 hours, cells were treated with stock compounds to a final DMSO concentration of 0.5%. After 24 hours of treatment, cell culture supernatant was collected, cleared for 10 min at 1000×g at 4° C., diluted or not in assay buffer (Phoenix Peptide ACTH EIA EK-001-21) and frozen at −80° C. for subsequent processing according to the instructions of the kit's manufacturer.

[2] = system: AtT-20 cells; assay: Cytotoxicity towards AtT-20 cells (PrestoBlue viability assay); details: for AtT-20 cell viability (PrestoBlue assay) % of control (DMSO) at 25 μM Mean (SD): 24-hour exposure
Source text: The AtT-20 cells viability was monitored in the conditions used to follow ACTH secretion. The viability of treated cells was concomitantly evaluated using a Cell Viability Reagent (monitoring of the cells' reducing capacity) (PrestoBlue® assay, Molecular Probes) with the aim to determine non-toxic doses of cell treatment.
After the collection of the supernatant sample for the ACTH assay in the previous step, cells were supplemented with the PrestoBlue™ cell viability reagent (Invitrogen™ A13261) at 10% final volume, and re-incubated at 37° C. for 30 minutes. Fluorescence was then read with a FLUOstar OPTIMA microplate reader.

Row | Compound | inhibition of ACTH at 25 μM, in words (FIG. 4, FIG. 5) [1] | activity at 25 µM ([1]; Mus musculus, AtT20, AtT-20 supernatant, read-out: ACTH secretion % of control (DMSO) at 25 μM) [%] | ACTH secretion % of control (DMSO) at 25 μM ([1]; AtT-20 supernatant, listed as Rafoxanide Amb2704313, 25 µM) [%] | ACTH secretion % of control (DMSO) at 25 μM ([1]; AtT-20 supernatant, listed as Rafoxanide MCE HY-17598, 25 µM) [%] | cytotoxicity on AtT-20 cells, in words (FIG. 6) ([2]; 25 μM for 24 hours) | AtT-20 cell viability (PrestoBlue assay) % of control (DMSO) at 25 μM Mean (SD) ([2]; listed as Rafoxanide Amb2704313) | AtT-20 cell viability (PrestoBlue assay) % of control (DMSO) at 25 μM Mean (SD) ([2]; listed as Rafoxanide MCE HY-17598)
1 | Cc1ccc(NC(=O)c2cc(Cl)ccc2O)cc1 [OSSL-122817] | ineffective | 118 | – | – | – | – | –
2 | O=C(Nc1ccc(Oc2ccc(Cl)cc2)c(Cl)c1)c1cc(I)cc(I)c1O [Rafoxanide, reference compound] | significant inhibition | – | 33 | 57 | partially cytotoxic | 39.30 (6.852) % | 56.15 (3.536) %

From patent publication US20260207535A1, “CRIBLAGE INHIBITEURS USP8” (COMMISSARIAT A L'ENERGIE ATOMIQUE ET AUX ENERGIES …, priority 2022, published 2026)
